Test results from ChEMBL document CHEMBL5370533 (Eur J Med Chem, 2023).

Legend:
[1] = AUC(0 to t) in rat at 10 mg/kg, po; type: ADME, organism-based; set-up: dose 10 mg/kg, route po; settings: in vivo
[2] = biological target: Receptor-type tyrosine-protein kinase FLT3 (Homo sapiens, UniProt P36888, ITD); assay: Binding affinity to FLT3 ITD mutant (unknown origin)
[3] = tested on: BaF3; assay: cells; type: functional, cell-based; settings: Mus musculus, BaF3, 72 h
Description: Antiproliferative activity against mouse BaF3 cells harboring FLT3 ITD/F691L mutant assessed as inhibition of cell growth incubated for 72 hrs

[4] = biological target: Receptor-type tyrosine-protein kinase FLT3 (Homo sapiens) (UniProt P36888); assay: Inhibition of FLT3 (unknown origin); settings: concentration not given here
[5] = biological target: T1, Receptor-type tyrosine-protein kinase FLT3 (Homo sapiens, UniProt P36888); assay: Inhibition of human FLT3 using EAIYAAPFAKKK and [gamma-33P]-ATP as substrate pretreated for 20 mins followed by [gamma-33P]-ATP addition and measured after 120 mins in presence of 10 uM ATP by radiometric Hot-SpotSM Kinase assay
T1 sequence (P36888 whole entry): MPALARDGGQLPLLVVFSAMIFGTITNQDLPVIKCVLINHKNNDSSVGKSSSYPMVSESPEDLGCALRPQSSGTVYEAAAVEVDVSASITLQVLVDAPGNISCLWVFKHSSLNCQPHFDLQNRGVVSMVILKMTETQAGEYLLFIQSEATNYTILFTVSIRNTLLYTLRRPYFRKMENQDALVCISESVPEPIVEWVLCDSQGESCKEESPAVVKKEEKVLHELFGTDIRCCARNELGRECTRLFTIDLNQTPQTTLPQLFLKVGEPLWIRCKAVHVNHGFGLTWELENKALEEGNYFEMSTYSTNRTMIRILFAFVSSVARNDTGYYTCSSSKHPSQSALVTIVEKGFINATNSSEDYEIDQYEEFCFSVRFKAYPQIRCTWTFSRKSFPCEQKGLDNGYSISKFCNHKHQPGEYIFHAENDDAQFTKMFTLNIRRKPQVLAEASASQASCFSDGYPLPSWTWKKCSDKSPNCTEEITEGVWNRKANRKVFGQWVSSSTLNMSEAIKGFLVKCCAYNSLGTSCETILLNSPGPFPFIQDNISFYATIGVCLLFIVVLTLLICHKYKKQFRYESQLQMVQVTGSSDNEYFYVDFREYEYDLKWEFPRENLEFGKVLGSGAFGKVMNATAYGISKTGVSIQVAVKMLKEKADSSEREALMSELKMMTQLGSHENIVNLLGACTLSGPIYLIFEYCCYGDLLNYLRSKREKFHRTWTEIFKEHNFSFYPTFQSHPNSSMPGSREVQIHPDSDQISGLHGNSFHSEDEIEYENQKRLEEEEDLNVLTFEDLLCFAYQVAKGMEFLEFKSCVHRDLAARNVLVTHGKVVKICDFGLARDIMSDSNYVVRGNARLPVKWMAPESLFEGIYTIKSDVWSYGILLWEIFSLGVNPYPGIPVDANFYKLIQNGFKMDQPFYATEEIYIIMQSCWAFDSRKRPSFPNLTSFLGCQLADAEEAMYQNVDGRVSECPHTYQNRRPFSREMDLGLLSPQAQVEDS

[6] = tested on: ACHN; assay: Antiproliferative activity against human ACHN cells assessed as inhibition of cell growth; type: functional
[7] = biological target: CDK7/Cyclin H/MNAT1 (Homo sapiens) (UniProt P51946+P50613+P51948); assay: Inhibition of CDK7/Cyclin H/MAT1 (unknown origin); type: protein-complex assay; settings: concentration not given here
[8] = tested on: MV4-11; assay: animal or person; type: functional, Homo sapiens; settings: Mus musculus, MV4-11, 336 h, route po, time 2 weeks
Description: Antitumor activity against human MV4-11 cells xenografted in nu/nu mouse assessed as inhibition of tumor growth at 50 mg/kg, po qd for 2 weeks by vernier caliper analysis

[9] = biological target: Cyclin-dependent kinase 6 (Homo sapiens, UniProt Q00534); assay: Inhibition of human CDK6 pretreated for 20 mins followed by [gamma-33P]-ATP addition and measured after 120 mins in presence of 10 uM ATP by radiometric Hot-SpotSM Kinase assay
Chain of Cyclin-dependent kinase 6 (Q00534 whole entry): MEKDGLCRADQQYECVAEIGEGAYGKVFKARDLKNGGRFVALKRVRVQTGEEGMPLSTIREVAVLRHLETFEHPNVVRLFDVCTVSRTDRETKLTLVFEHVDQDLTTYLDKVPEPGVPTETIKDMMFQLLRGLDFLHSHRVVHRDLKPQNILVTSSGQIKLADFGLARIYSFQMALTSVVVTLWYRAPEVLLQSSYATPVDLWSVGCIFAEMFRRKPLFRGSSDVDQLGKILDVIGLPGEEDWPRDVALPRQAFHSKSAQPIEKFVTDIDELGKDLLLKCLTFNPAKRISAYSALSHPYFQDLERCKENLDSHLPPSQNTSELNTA

[10] = biological target: Receptor-type tyrosine-protein kinase FLT3 (Homo sapiens) (UniProt P36888); assay: Inhibition of FLT3 in human MV4-11 cells assessed as decrease in phosphorylated FLT3 level incubated for 24 hrs by immunoblot analysis; type: cell-based; settings: dose 20-600 nM
[11] = tested on: THP-1; assay: Antiproliferative activity against human THP-1 cells expressing wild type FLT3 assessed as inhibition of cell growth; type: functional, cell-based
[12] = Toxicity against nu/nu mouse xenografted with human MV4-11 cells assessed as decrease in body weight at 25 mg/kg, po qd for 2 weeks; type: organism-based; settings: in vivo, 336 h
[13] = tested on: KM12; assay: Antiproliferative activity against human KM12 cells assessed as inhibition of cell growth; type: functional
[14] = tested on: LOX IMVI; assay: Antiproliferative activity against human LOX IMVI cells assessed as inhibition of cell growth; type: functional
[15] = tested on: SR; assay: Antiproliferative activity against human SR cells assessed as inhibition of cell growth; type: functional
[16] = Half life in rat at 10 mg/kg, po; type: ADME, organism-based; settings: in vivo
[17] = biological target: Cyclin-dependent kinase 2 (Homo sapiens, UniProt P24941); assay: Inhibition of human CDK2 pretreated for 20 mins followed by [gamma-33P]-ATP addition and measured after 120 mins in presence of 10 uM ATP by radiometric Hot-SpotSM Kinase assay
[18] = biological target: Receptor-type tyrosine-protein kinase FLT3 (Homo sapiens, UniProt P36888, R834Q); assay: Binding affinity to FLT3 R834Q mutant (unknown origin)
[19] = tested on: HL-60; assay: Antiproliferative activity against human HL-60 cells expressing low level wild type FLT3 assessed as inhibition of cell growth; type: functional, cell-based
[20] = biological target: Receptor-type tyrosine-protein kinase FLT3 (Homo sapiens) (UniProt P36888); assay: Inhibition of FLT3 in human MV4-11 cells assessed as decrease in phosphorylated STAT5 level incubated for 24 hrs by immunoblot analysis; type: cell-based; settings: dose 20-600 nM
[21] = tested on: BaF3; assay: cells; type: functional, cell-based; settings: Mus musculus, BaF3, 72 h; remark: listed apart in the source
Description: Antiproliferative activity against mouse BaF3 cells harboring FLT3 ITD mutant assessed as inhibition of cell growth incubated for 72 hrs

[22] = biological target: Receptor-type tyrosine-protein kinase FLT3 (Homo sapiens, UniProt P36888, N841I); assay: Binding affinity to FLT3 N841I mutant (unknown origin)

AUC(0-t) [1]: 1080 ng·h/mL
Kd [2]: 18.2 nM
IC50 [3]: 95 nM
inhibition [4]: 99.6%
IC50 [5]: 0.62 nM
GI50 [6]: < 1000 nM
inhibition [7]: 80.9%
IC50 [9]: 122 nM
inhibition [10]: Dose-Dependent Effect
IC50 [11]: 904 nM
half-life [16]: 3.5 h
IC50 [17]: 98.3 nM
Kd [18]: 66.5 nM
IC50 [19]: 972 nM
inhibition [20]: Dose-Dependent Effect
IC50 [21]: 39 nM
Kd [22]: 77.2 nM
SMILES: O=C(Nc1ccc(N2CCNCC2)cc1)c1n[nH]cc1Nc1cc(Oc2ccccc2)ncn1
inhibition in vivo at 50 mg/kg [8]: 94%
Activity [12]: Non-Toxic
GI50 [13]: < 1000 nM
GI50 [14]: < 1000 nM
GI50 [15]: < 1000 nM
